Measured values: patent US8871681B2, “Herbicidal compositions comprising 4-amino-3-chloro-5-fluoro-6-(4-chloro-2-fluoro-3-methoxyphenyl) pyridine-2-carboxylic acid or a derivative thereof and certain sulfonylureas” (Dow AgroSciences LLC, priority 2012, dated 2014)

Experiments:
[1] = tested on: SCPMA (Bolboschoenus maritimus or Schoenoplectus maritimus, sea clubrush); assay: In-water applied weed control, transplanted paddy rice, greenhouse (Example II); type: in vivo, Bolboschoenus maritimus (L.) Palla
Description: (§1) Weed seeds or nutlets of the desired test plant species were planted in puddled soil (mud) prepared by mixing a shredded, non-sterilized mineral soil (50.5 percent silt, 25.5 percent clay, and 24 percent sand, with a pH of about 7.6 and an organic matter content of about 2.9 percent) and water at a 1:1 volumetric ratio. The prepared mud was dispensed in 365 mL aliquots into 16-ounce (oz.) non-perforated plastic pots with a surface area of 86.59 square centimeters (cm^2) leaving a headspace of 3 centimeters (cm) in each pot. Rice seeds were planted in Sun Gro MetroMix® 306 planting mixture, which typically has a pH of 6.0 to 6.8 and an organic matter content of about 30 percent, in plastic plug trays. Seedlings at the second or third leaf stage of growth were transplanted into 860 mL of mud contained in 32-oz. non-perforated plastic pots with a surface area of 86.59 cm^2 4 days prior to herbicide application. The paddy was created by filling the headspace of the pots with 2.5 to 3 cm of water. When required to ensure good germination and healthy plants, a fungicide treatment and/or other chemical or physical treatment was applied. The plants were grown for 4-22 days in a greenhouse with an approximate 14 h photoperiod which was maintained at about 29′C during the day and 26° C. during the night. Nutrients were added as Osmocote® (19:6:12, N:P:K+minor nutrients) at 2 g per 16-oz. pot and 4 g per 32-oz. pot. Water was added on a regular basis to maintain the paddy flood, and supplemental lighting was provided with overhead metal halide 1000-Watt lamps as necessary. The plants were employed for testing when they reached the first through fourth true leaf stage.
(§2) Treatments consisted of the acid or esters of 4-amino-3-chloro-5-fluoro-6-(4-chloro-2-fluoro-3-methoxy-phenyl)pyridine-2-carboxylic acid (compound A) each formulated as an SC and various herbicidal components alone and in combination. Forms of compound A were applied on an acid equivalent basis.
(§3) Other herbicidal components were applied on an active ingredient basis and included acetolactate synthase (ALS)-inhibiting herbicides (sulfonylurea chemical class), azimsulfuron formulated as Gulliver®, bensulfuron-methyl formulated as Londax® 60DF, cyclosulfamuron (technical grade materail), ethoxysulfuron formulated as Sunrice® 15 WDG, flucetosulfuron formulated as Sukedachi® 1KG G, imazosulfuron formulated as Brazzos®, metsulfuron-methyl formulated as Lorate®, nicosulfuron formulated as Accent®, orthosulfamuron formulated as Strada® WG, propyrisulfuron formulated as Zeta One®, and rimsulfuron formulated as Matrix® WG.
(§4) Treatment requirements for each compound or herbicidal component were calculated based upon the rates being tested, the concentration of active ingredient or acid equivalent in the formulation, an application volume of 2 mL per component per pot, and an application area of 86.59 cm^2 per pot.
(§5) For formulated compounds, a measured amount was placed in an individual 100 or 200 mL glass vial and was dissolved in a volume of 1.25% (v/v) Agri-Dex® crop oil concentrate to obtain application solutions.
(§6) For technical grade compounds, a weighed amount was placed in an individual 100 to 200 mL glass vial and was dissolved in a volume of acetone to obtain concentrated stock solutions. […] The concentrated stock solutions obtained were diluted with an equivalent volume of an aqueous mixture containing 2.5% (v/v) crop oil concentrate so that the final application solutions contained 1.25% (v/v) crop oil concentrate.
(§7) Applications were made by injecting with a pipetter appropriate amounts of the application solutions, individually and sequentially, into the aqueous layer of the paddy. Control plants were treated in the same manner with the solvent blank. Applications were made so that all treated plant material received the same concentrations of acetone and crop oil concentrate. […]

[2] = tested on: BRAPP (Brachiaria platyphylla, broadleaf signalgrass); assay: Postemergence foliar-applied weed control, direct seeded rice, greenhouse (Example I); type: in vivo, Brachiaria platyphylla (Griseb.) Nash; conditions: Urochloa platyphylla, post-emergence, 480 h, 20 DAA, read-out: Visual Weed Control (%) Obs
From the text: (§8) Seeds or nutlets of the desired test plant species were planted in a soil matrix prepared by mixing a loam or sandy loam soil (e.g., 28.6 percent silt, 18.8 percent clay, and 52.6 percent sand, with a pH of about 5.8 and an organic matter content of about 1.8 percent) and calcareous grit in an 80 to 20 ratio. The soil matrix was contained in plastic pots with a volume of 1 quart and a surface area of 83.6 square centimeters (cm^2). When required to ensure good germination and healthy plants, a fungicide treatment and/or other chemical or physical treatment was applied. The plants were grown for 8-22 days in a greenhouse with an approximate 14 h photoperiod which was maintained at about 29° C. during the day and 26° C. during the night. Nutrients (Peters Excel® 15-5-15 5-Ca 2-Mg and iron chelate) were applied in the irrigation solution as needed and water was added on a regular basis. Supplemental lighting was provided with overhead metal halide 1000-Watt lamps as necessary. The plants were employed for testing when they reached the first through fourth true leaf stage.
(§9) Treatments consisted of the acid or esters of 4-amino-3-chloro-5-fluoro-6-(4-chloro-2-fluoro-3-methoxy-phenyl)pyridine-2-carboxylic acid (Compound A), each formulated as an SC, and various herbicidal components alone and in combination. Forms of compound A were applied on an acid equivalent basis.
(§10) Other herbicidal components were applied on an active ingredient basis and included acetolactate synthase (ALS)-inhibiting herbicides (sulfonylurea chemical class) azimsulfuron formulated as Gulliver®, bensulfuron-methyl formulated as Londax® 60DF, cyclosulfamuron (technical material), ethoxysulfuron formulated as Sunrice® 15 WDG, flazasulfuron formulated as Katana®, flucetosulfuron formulated as Sukedachi® 1KG G, foramsulfuron formulated as Option®, imazosulfuron formulated as Brazzos® WG, iodosulfuron-methyl-sodium formulated as Hussar®, metsulfuron-methyl formulated as Lorate®, nicosulfuron formulated as Accent®, orthosulfamuron formulated as Strada® WG, primisulfuron-methyl (technical material), propyrisulfuron formulated as Zeta One®, rimsulfuron formulated as Matrix® WG, sulfometuron-methyl formulated as Oust®, and trifloxysulfuron-sodium formulated as Monument® 75WG.
(§11) Treatment requirements were calculated based upon the rates being tested, the concentration of active ingredient or acid equivalent in the formulation, and a 12 mL application volume at a rate of 187 L/ha.
(§12) For treatments comprised of formulated compounds, measured amounts of compounds were placed individually in 25 mL glass vials and diluted in a volume of 1.25% (v/v) Agri-Dex® crop oil concentrated to obtain 12× stock solutions. […] Application solutions were prepared by adding an appropriate amount of each stock solution (e.g., 1 mL) and diluted to the appropriate final concentrations with the addition of 10 mL of an aqueous mixture of 1.25% (v/v) crop oil concentrate so that the final spray solutions contained 1.25+/−0.05% (v/v) Agrcrop oil concentrate.
(§13) For treatments comprised of formulated and technical compounds, weighed amounts of the technical materials were placed individually in 25 mL glass vials and dissolved in a volume of 97:3 v/v acetone/DMSO to obtain 12× stock solutions, and measured amounts of the formulated compounds were placed individually in 25 mL glass vials and diluted in a volume of 1.25% (v/v) crop oil concentrate to obtain 12× stock solutions. […] Application solutions were prepared by adding an appropriate amount of each stock solution (e.g., 1 mL) and diluted to the appropriate final concentrations with the addition of an appropriate amount of an aqueous mixture of 1.5% (v/v) crop oil concentrate so that the final spray solutions contained 1.25% (v/v) crop oil concentrate. […]

[3] = tested on: ECHOR (Echinochloa oryzoides, early watergrass); assay: In-water applied weed control, transplanted paddy rice, greenhouse (Example II); type: in vivo, Echinochloa oryzoides (Ard.) Fritsch
Description: as §1, §2, §3, §4, §5, §6, §7

[4] = tested on: LEFCH (Leptochloa chinensis, Chinese sprangletop); assay: Postemergence foliar-applied weed control, direct seeded rice, greenhouse (Example I); type: in vivo, Leptochloa chinensis (L.) Nees; conditions: Dinebra chinensis, post-emergence
From the text: as §8, §9, §10, §11, §12, §13

[5] = tested on: CYPIR (Cyperus iria, rice flatsedge); assay: as above; type: in vivo, Cyperus iria L.; conditions: 22 DAA; 12.5 gai/ha
From the text: as §8, §9, §10, §11, §12, §13

[6] = tested on: DIGSA (Digitaria sanguinalis, large crabgrass); assay: as above; type: in vivo, Digitaria sanguinalis (L.) Scop.
From the text: as §8, §9, §10, §11, §12, §13

[7] = Table 28, second set, 25 gai/ha alone

## COc1cc(OC)nc(NC(=O)NS(=O)(=O)c2c(-c3nnn(C)n3)cnn2C)n1 [Azimsulfuron, N-[[(4,6-dimethoxy-2-pyrimidinyl)amino]carbonyl]-1-methyl-4-(2-methyl-2H-tetrazol-5-yl)-1H-pyrazole-5-sulfonamide, reference compound]
[1]; Table 28, 2.5 gai/ha alone
  Visual Weed Control (%) - 20 DAA SCPMA Obs: 70%
[1]; [7]
  Visual Weed Control (%) - 20 DAA SCPMA Obs: 85%
[1]; Table 29, 2.5 gai/ha alone
  Visual Weed Control (%) - 20 DAA SCPMA Obs: 70%
[1]; Table 29, 25 gai/ha alone
  Visual Weed Control (%) - 20 DAA SCPMA Obs: 85%
[2]; 3.125 gai/ha
  pest or weed control at 3.125 g/ha: 0%
[2]; 6.25 gai/ha
  pest or weed control at 6.25 g/ha: 0%
[2]; 12.5 gai/ha
  pest or weed control at 12.5 g/ha: 60%
[3]; Table 28, 2.5 gai/ha alone
  Visual Weed Control (%) - 20 DAA ECHOR Obs: 0%
[3]; [7]
  Visual Weed Control (%) - 20 DAA ECHOR Obs: 60%
[3]; Table 29, 2.5 gai/ha alone
  Visual Weed Control (%) - 20 DAA ECHOR Obs: 0%
[3]; Table 29, 5 gai/ha alone
  Visual Weed Control (%) - 20 DAA ECHOR Obs: 20%
[3]; Table 29, 25 gai/ha alone
  Visual Weed Control (%) - 20 DAA ECHOR Obs: 60%
[3]; Table 30, 25 gai/ha alone
  Visual Weed Control (%) - 20 DAA ECHOR Obs: 60%
[4]; 480 h, 20 DAA, 3.125 gai/ha, read-out: Visual Weed Control (%) Obs
  pest or weed control at 3.125 g/ha: 0%
[4]; 480 h, 20 DAA, 6.25 gai/ha, read-out: Visual Weed Control (%) Obs
  pest or weed control at 6.25 g/ha: 0%

## COc1cc(OC)nc(NC(=O)NS(=O)(=O)Nc2ccccc2C(=O)C2CC2)n1 [Cyclosulfamuron, N-[[[2-(cyclopropylcarbonyl)phenyl]amino]sulfonyl]-N′-(4,6-dimethoxy-2-pyrimidinyl)urea, reference compound]
[1]; Table 33, 12.5 gai/ha alone
  Visual Weed Control (%) - 21 DAA SCPMA Obs: 75%
[5]
  Visual Weed Control (%) Obs: 95%

## COc1cc(OC)nc(NC(=O)NS(=O)(=O)c2cc(NC=O)ccc2C(=O)N(C)C)n1 [Foramsulfuron, 2-[[[[(4,6-dimethoxy-2-pyrimidinyl)amino]carbonyl]amino]sulfonyl]-4-(formylamino)-N,N-dimethylbenzamide]
[4]; 504 h, 21 DAA, 20 gai/ha, read-out: Visual Weed Control (%) Obs
  pest or weed control at 20 g/ha: 0%
[4]; 504 h, 21 DAA, 40 gai/ha, read-out: Visual Weed Control (%) Obs
  pest or weed control at 40 g/ha: 25%

## COC(=O)c1ccccc1S(=O)(=O)NC(=O)Nc1nc(OC(F)F)cc(OC(F)F)n1 [Primisulfuron-methyl, methyl 2-[[[[[4,6-bis(difluoromethoxy)-2-pyrimidinyl]amino]carbonyl]amino]sulfonyl]benzoate]
[4]; 504 h, read-out: Visual Weed Control (%) Obs, 21 DAA, 15 gai/ha
  pest or weed control at 15 g/ha: 40%
[4]; 504 h, read-out: Visual Weed Control (%) Obs, 21 DAA, 30 gai/ha
  pest or weed control at 30 g/ha: 60%

## COC(=O)c1ccccc1S(=O)(=O)NC(=O)Nc1nc(C)cc(C)n1 [Sulfometuron-methyl, methyl 2-[[[[(4,6-dimethyl-2-pyrimidinyl)amino]carbonyl]amino]sulfonyl]benzoate, reference compound]
[6]; 22 DAA, 35 gai/ha
  Visual Weed Control (%) Obs: 85%

## COc1cc(OC)nc(NC(=O)[N-]S(=O)(=O)c2ncccc2OCC(F)(F)F)n1.[Na+] [Trifloxysulfuron-sodium]
[6]; Table 27, foliar-applied, 24 gai/ha alone
  Visual Weed Control (%) - 21 DAA DIGSA Obs: 65%
